Where “and” joins values, the source holds several entries; their conditions need not be identical. Equal values may be shown once. Where a name gives a salt, the structure may show the parent alone.
Columns and labels:
Assay type in all cases: cell-based
[1] = test system: Glutathione-S transferase
[2] = test system: Homoprotocatechuate 2,3-dioxygenase
[3] = biological target: T1, AtzA (Pseudomonas sp., UniProt P72156)
T1 construct: expressed in transfected cells; host or cells: E. coli DH5α (pMD4)
T1 sequence (P72156 1-474): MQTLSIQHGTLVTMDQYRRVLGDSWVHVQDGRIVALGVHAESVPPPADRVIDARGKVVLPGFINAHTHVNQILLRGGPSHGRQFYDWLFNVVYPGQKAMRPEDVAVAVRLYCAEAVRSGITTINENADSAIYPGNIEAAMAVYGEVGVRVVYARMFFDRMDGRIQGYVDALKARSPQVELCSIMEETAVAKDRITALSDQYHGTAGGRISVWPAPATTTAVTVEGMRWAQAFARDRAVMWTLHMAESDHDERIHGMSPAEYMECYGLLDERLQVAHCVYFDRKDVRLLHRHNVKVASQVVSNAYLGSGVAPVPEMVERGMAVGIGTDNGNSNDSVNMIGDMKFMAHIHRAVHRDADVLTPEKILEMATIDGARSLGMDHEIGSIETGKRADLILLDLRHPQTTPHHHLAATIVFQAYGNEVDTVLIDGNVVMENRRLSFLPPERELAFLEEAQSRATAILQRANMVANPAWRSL

[4] = biological target: T1, AtzA; remark: listed apart in the source
[5] = biological target: T2, CAH (Moorella thermoacetica, UniProt Q2RGM7)
T2 construct: expressed in transfected cells; host or cells: E. coli BL21(DE3)(pET28b+CAH), IPTG-induced
T2 sequence (Q2RGM7 1-367): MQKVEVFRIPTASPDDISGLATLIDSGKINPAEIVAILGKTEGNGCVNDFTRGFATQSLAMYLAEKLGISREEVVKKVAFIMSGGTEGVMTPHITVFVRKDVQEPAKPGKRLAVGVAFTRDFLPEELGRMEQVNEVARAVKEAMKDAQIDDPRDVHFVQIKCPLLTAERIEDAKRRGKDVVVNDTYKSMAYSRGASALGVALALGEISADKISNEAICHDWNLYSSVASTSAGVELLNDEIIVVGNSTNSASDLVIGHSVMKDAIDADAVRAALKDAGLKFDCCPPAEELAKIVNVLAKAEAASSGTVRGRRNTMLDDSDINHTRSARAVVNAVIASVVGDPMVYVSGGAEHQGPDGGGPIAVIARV

[6] = biological target: T2, CAH; remark: listed apart in the source
[7] = test system: Pseudomonas sp. NCIB 9816-4
[8] = test system: Escherichia coli DH5α
[9] = biological target: T3, Azo reductase (Staphylococcus aureus, UniProt Q50H63)
T3 construct: expressed in transfected cells; host or cells: E. coli DH5 alpha
T3 sequence (Q50H63 1-188): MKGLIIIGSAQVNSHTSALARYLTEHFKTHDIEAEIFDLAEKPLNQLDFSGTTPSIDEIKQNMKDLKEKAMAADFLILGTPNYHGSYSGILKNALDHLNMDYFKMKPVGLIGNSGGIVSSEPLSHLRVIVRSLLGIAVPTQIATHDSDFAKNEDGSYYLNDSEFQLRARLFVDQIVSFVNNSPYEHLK

SMILES: O=[N+]([O-])c1ccc(Cl)c([N+](=O)[O-])c1 [1-chloro2,4-dinitrobenzene]
- Ratio (free cells/gel) [1]: ~3.8

SMILES: CC(=O)Oc1ccc(O)c(O)c1 [3,4 Dihydroxypheny acetate]
- Ratio (free cells/gel) [2]: 1-2.5

SMILES: CCNc1nc(Cl)nc(NC(C)C)n1 [Atrazine, 2-chloro-4-ethylamino-6-isopropylamino-1,3,5-triazine]
- atrazine removal, solutions left for 24 h [3]: complete atrazine removal
- increase of degradation rate [3]: three-folds
- enhancement of atrazine degradation rates [4]: threefold
- rate of atrazine removal, 75% phenyl gel compared to Teos gel [4]: approximately 3 fold
- rate of hydroxyatrazine formation, 75% phenyl gel compared to Teos gel [4]: approximately 3 fold

SMILES: O=c1[nH]c(=O)[nH]c(=O)[nH]1 [Cyanuric acid]
- cyanuric acid removed [5]: over 7,000 M
- degradation of cyanuric acid (in words) [5]: complete degradation
- decrease of initial rate of cyanuric acid degradation [6]: approximately 50%
- cyanuric acid level ([6]; 15 h): undetectable levels

SMILES: c1ccc2ccccc2c1 [Naphthalene]
- concentration (below detection limit) [7]: < 1 nM
- concentration left in the bulk solution (C/C0) [7]: ~25%
- final concentration [8]: 215.39 ± 7.23 µM
- remaining concentration [8]: 164.26 ± 8.90 µM and 107.67 ± 19.69 µM

SMILES: Oc1ccccc1 [Phenol]
- removal of single substrate from hydrocarbon solution (in words) [7]: very low removal

SMILES: CN(C)c1ccc(/N=N/c2ccccc2C(=O)O)cc1 [methyl red sodium salt]
- Ratio (free cells/gel) [9]: 1.8-3.7

SMILES: Cc1ccc(O)cc1 [p-Cresol]
- removal of single substrate from hydrocarbon solution (in words) [7]: completely degraded

From patent publication US20160175634A1 (priority 2014, published 2016)
